Laboratory results taken from patent US9023789B2, “Amylin analogs and pharmaceutical compositions thereof” (Novo Nordisk A/S, priority 2012, dated 2015).
Numbered stars: 1 amine (or outer) side, 2 acyl side, 3 side chain; on linkers, the order of the positions; unused ones are H or OH. Bridge positions count the residues as written; N and C are the ends. Side chains are listed from the residue outwards. Peptide text beside a SMILES is read from it. * marks the point of attachment. C20 diacid = O=C(O)CCCCCCCCCCCCCCCCCCC(=O)*; γGlu = O=C(O)[C@H](CCC(=O)[*:2])N[*:1]; AEEA = NCCOCCOCC(=O)O

Key:
[1] = molecular target: T1, human amylin 3(a) receptor (human calcitonin receptor + RAMP-3) in BHK570 cells (Homo sapiens, UniProt O60896+P30988); assay: ASSAY (II)a functional assay, human amylin receptor (CRE luciferase); assay type: cell-based; settings: for EC50: human amylin receptor functional potency, assay (II), read-out: hAmylin-R funct. EC50
T1 construct: expressed in transfected cells
How it was run: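 Ligand exposure 3 h at 37 °C, 5% CO2 in DMEM with 10% FBS, 10 mM Hepes pH 7.4. cAMP-driven luciferase read by luminescence after 30 min LucLite at room temperature.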

[2] = ASSAY (III) ThT fibrillation assay for physical stability; assay type: physicochemical
How it was run: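 Formulations with 1 μM ThT, pH adjusted as required, incubated at 37 °C with 960 rpm orbital shaking; fluorescence (ex 444/em 485 nm) read every 20 min. Fibrillation reported as mean ThT fluorescence ± SD of 4–8 replicates at time points; polypeptide concentration measured by reverse-phase HPLC before and after, post-centrifugation.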

[3] = tested on: Sprague Dawley (SD) rats; assay: ASSAY (I) efficacy testing on appetite (food intake) using an ad libitum fed rat model; assay type: in vivo; settings: rat
How it was run: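 Ad libitum fed SD rats (200–250 g) were housed singly on a reversed light/dark cycle and given one 0.01–3 mg/kg dose ip, po or sc just before lights-off, with 5–8 per dose group plus vehicle controls. Food intake was recorded hourly for 7 h, then at 24 h and sometimes 48 h; Grubbs outliers were excluded.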

[4] = hCTR funct. EC50 divided by hAmylin-R funct. EC50
[5] = hCTR funct. EC50 over hAmylin-R funct. EC50
[6] = human functional selectivity: hCTR funct. EC50 / hAmylin-R funct. EC50

T1 sequence (O60896 24-148): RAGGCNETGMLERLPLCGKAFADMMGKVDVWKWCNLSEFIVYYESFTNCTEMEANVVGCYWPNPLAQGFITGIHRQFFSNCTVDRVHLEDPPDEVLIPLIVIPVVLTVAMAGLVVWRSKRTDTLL
T1 sequence (P30988 25-474): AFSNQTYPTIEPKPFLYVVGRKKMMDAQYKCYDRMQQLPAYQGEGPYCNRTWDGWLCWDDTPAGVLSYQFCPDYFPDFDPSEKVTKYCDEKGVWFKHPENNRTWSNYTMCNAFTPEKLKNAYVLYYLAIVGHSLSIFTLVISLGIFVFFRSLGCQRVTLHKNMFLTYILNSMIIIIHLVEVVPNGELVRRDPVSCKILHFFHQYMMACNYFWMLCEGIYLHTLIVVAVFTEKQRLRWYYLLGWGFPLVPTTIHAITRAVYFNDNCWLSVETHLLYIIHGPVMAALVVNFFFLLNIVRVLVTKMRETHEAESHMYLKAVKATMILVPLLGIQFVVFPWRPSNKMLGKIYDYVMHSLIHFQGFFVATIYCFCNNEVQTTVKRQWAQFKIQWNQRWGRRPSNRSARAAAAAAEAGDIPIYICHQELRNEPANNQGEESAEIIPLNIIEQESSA

| Structure (SMILES) | Ratio hCT/hAmylin funct. [1, 4] | Ratio hCT/hAmylin funct. [1, 5] | EC50 [1] | Ratio hCT/hAmylin funct. [1, 6] | ThT pH 4.0 lag time (h) [2] | Food intake reduction 0-24 h 30 nmol/kg (%) ([3]; 0-24 h) | Food intake reduction 24-48 h 30 nmol/kg (%) ([3]; 24-48 h) | Food intake reduction 0-24 h 3 nmol/kg (%) ([3]; 3 nmol/kg, 0-24 h) | Food intake reduction 24-48 h 3 nmol/kg (%) ([3]; 3 nmol/kg, 24-48 h) |
| --- | --- | --- | --- | --- | --- | --- | --- | --- | --- |
| CC[C@H](C)[C@H](NC(=O)[C@H](C)NC(=O)CNC(=O)[C@H](Cc1ccccc1)NC(=O)[C@H](CC(N)=O)NC(=O)[C@@H]1CCCN1C(=O)[C@H](CO)NC(=O)[C@H](CO)NC(=O)[C@H](Cc1c[nH]cn1)NC(=O)[C@H](CCCNC(=N)N)NC(=O)[C@H](CC(C)C)NC(=O)[C@H](Cc1ccccc1)NC(=O)[C@H](CC(=O)O)NC(=O)[C@H](C)NC(=O)[C@H](CC(C)C)NC(=O)[C@H](CCCNC(=N)N)NC(=O)[C@H](CCC(N)=O)NC(=O)[C@@H](NC(=O)[C@H](C)NC(=O)[C@@H]1CSSC[C@H](NC(=O)[C@@H](N)CCCCNC(=O)CC[C@H](NC(=O)CC[C@H](NC(=O)CCCCCCCCCCCCCCCCCCC(=O)O)C(=O)O)C(=O)O)C(=O)N[C@@H](CC(N)=O)C(=O)N[C@@H]([C@@H](C)O)C(=O)N[C@@H](C)C(=O)N[C@@H]([C@@H](C)O)C(=O)N1)[C@@H](C)O)C(=O)N1CCC[C@H]1C(=O)N[C@@H](CO)C(=O)N[C@@H](CO)C(=O)N[C@H](C(=O)N[C@@H](CC(N)=O)C(=O)N[C@H](C(=O)NCC(=O)N[C@@H](CO)C(=O)N[C@@H](CC(=O)O)C(=O)N[C@H](C(=O)N[C@@H](Cc1ccc(O)cc1)C(N)=O)[C@@H](C)O)C(C)C)[C@@H](C)O [Example 2] (H-K([γGlu-γGlu-C20 diacid])CNTATCATQRLADFLRHSSPNFGAIPSSTNVGSDTY-NH2; disulfide 2-7; N-terminus assumed) | 16.4 | 16.4 |  | 16.4 | 10 h | 72% | 62% | 39% | 10% |
| CC[C@H](C)[C@H](NC(=O)[C@H](C)NC(=O)CNC(=O)[C@H](Cc1ccccc1)NC(=O)[C@H](CC(N)=O)NC(=O)[C@@H]1CCCN1C(=O)[C@H](CO)NC(=O)[C@H](CO)NC(=O)[C@H](Cc1c[nH]cn1)NC(=O)[C@H](CCCNC(=N)N)NC(=O)[C@H](CC(C)C)NC(=O)[C@H](Cc1ccccc1)NC(=O)[C@H](CCCNC(=N)N)NC(=O)[C@H](C)NC(=O)[C@H](CC(C)C)NC(=O)[C@H](CCCNC(=N)N)NC(=O)[C@H](CCC(N)=O)NC(=O)[C@@H](NC(=O)[C@H](C)NC(=O)[C@@H]1CSSC[C@H](NC(=O)[C@@H](N)CCCCNC(=O)CC[C@H](NC(=O)CCCCCCCCCCCCCCCCCCC(=O)O)C(=O)O)C(=O)N[C@@H](CC(N)=O)C(=O)N[C@@H]([C@@H](C)O)C(=O)N[C@@H](C)C(=O)N[C@@H]([C@@H](C)O)C(=O)N1)[C@@H](C)O)C(=O)N1CCC[C@H]1C(=O)N[C@@H](CO)C(=O)N[C@@H](CO)C(=O)N[C@H](C(=O)N[C@@H](CC(N)=O)C(=O)N[C@H](C(=O)NCC(=O)N1CCC[C@H]1C(=O)N[C@@H](CC(N)=O)C(=O)N[C@H](C(=O)N[C@@H](Cc1ccc(O)cc1)C(N)=O)[C@@H](C)O)C(C)C)[C@@H](C)O [Example 65] (H-K([γGlu-C20 diacid])CNTATCATQRLARFLRHSSPNFGAIPSSTNVGPNTY-NH2; disulfide 2-7 (inferred); N-terminus assumed) | 38.6 | 38.6 | 0.242 nM | 38.6 | 45 h | 10% | 0% |  |  |
| CC[C@H](C)[C@H](NC(=O)[C@H](C)NC(=O)CNC(=O)[C@H](Cc1ccccc1)NC(=O)[C@H](CC(N)=O)NC(=O)[C@@H]1CCCN1C(=O)[C@H](CO)NC(=O)[C@H](CO)NC(=O)[C@H](Cc1c[nH]cn1)NC(=O)[C@H](CCCNC(=N)N)NC(=O)[C@H](CC(C)C)NC(=O)[C@H](Cc1ccccc1)NC(=O)[C@H](CCC(=O)O)NC(=O)[C@H](C)NC(=O)[C@H](CC(C)C)NC(=O)[C@H](CCCNC(=N)N)NC(=O)[C@H](CCC(N)=O)NC(=O)[C@@H](NC(=O)[C@H](C)NC(=O)[C@@H]1CSSC[C@H](NC(=O)[C@@H](N)CCCCNC(=O)CC[C@H](NC(=O)CC[C@H](NC(=O)CCCCCCCCCCCCCCCCCCC(=O)O)C(=O)O)C(=O)O)C(=O)N[C@@H](CC(N)=O)C(=O)N[C@@H]([C@@H](C)O)C(=O)N[C@@H](C)C(=O)N[C@@H]([C@@H](C)O)C(=O)N1)[C@@H](C)O)C(=O)N1CCC[C@H]1C(=O)N[C@@H](CO)C(=O)N[C@@H](CO)C(=O)N[C@H](C(=O)N[C@@H](CC(N)=O)C(=O)N[C@H](C(=O)NCC(=O)N[C@@H](CO)C(=O)N[C@@H](CCCNC(=N)N)C(=O)N[C@H](C(=O)N[C@@H](Cc1ccc(O)cc1)C(N)=O)[C@@H](C)O)C(C)C)[C@@H](C)O [Example 89] (H-K([γGlu-γGlu-C20 diacid])CNTATCATQRLAEFLRHSSPNFGAIPSSTNVGSRTY-NH2; disulfide 2-7 (inferred); N-terminus assumed) | 27.8 | 27.8 | 0.404 nM | 27.8 | 43 h | 46% | 37% |  |  |

Second part, led by results:

| Ratio hCT/hAmylin funct. [1, 4] | Ratio hCT/hAmylin funct. [1, 5] | EC50 [1] | Ratio hCT/hAmylin funct. [1, 6] | ThT pH 4.0 lag time (h) [2] | Structure (SMILES) | Food intake reduction 0-24 h 30 nmol/kg (%) ([3]; 0-24 h) | Food intake reduction 24-48 h 30 nmol/kg (%) ([3]; 24-48 h) | Food intake reduction 0-24 h 3 nmol/kg (%) ([3]; 3 nmol/kg, 0-24 h) | Food intake reduction 24-48 h 3 nmol/kg (%) ([3]; 3 nmol/kg, 24-48 h) |
| --- | --- | --- | --- | --- | --- | --- | --- | --- | --- |
| 33.0 | 33.0 | 0.651 nM | 33.0 | 37 h | CC[C@H](C)[C@H](NC(=O)[C@H](C)NC(=O)CNC(=O)[C@H](Cc1ccccc1)NC(=O)[C@H](CC(N)=O)NC(=O)[C@@H]1CCCN1C(=O)[C@H](CO)NC(=O)[C@H](CO)NC(=O)[C@H](Cc1c[nH]cn1)NC(=O)[C@H](CCCNC(=N)N)NC(=O)[C@H](CC(C)C)NC(=O)[C@H](Cc1ccccc1)NC(=O)[C@H](CC(N)=O)NC(=O)[C@H](C)NC(=O)[C@H](CC(C)C)NC(=O)[C@H](CCCNC(=N)N)NC(=O)[C@H](CCC(N)=O)NC(=O)[C@@H](NC(=O)[C@H](C)NC(=O)[C@@H]1CSSC[C@H](NC(=O)[C@@H](N)CCCCNC(=O)COCCOCCNC(=O)COCCOCCNC(=O)CC[C@H](NC(=O)CCCCCCCCCCCCCCCCCCC(=O)O)C(=O)O)C(=O)N[C@@H](CC(N)=O)C(=O)N[C@@H]([C@@H](C)O)C(=O)N[C@@H](C)C(=O)N[C@@H]([C@@H](C)O)C(=O)N1)[C@@H](C)O)C(=O)N1CCC[C@H]1C(=O)N[C@@H](CO)C(=O)N[C@@H](CO)C(=O)N[C@H](C(=O)N[C@@H](CC(N)=O)C(=O)N[C@H](C(=O)NCC(=O)N[C@@H](CCCNC(=N)N)C(=O)N[C@@H](CC(N)=O)C(=O)N[C@H](C(=O)N[C@@H](Cc1ccc(O)cc1)C(N)=O)[C@@H](C)O)C(C)C)[C@@H](C)O [Example 95] (H-K([AEEA-AEEA-γGlu-C20 diacid])CNTATCATQRLANFLRHSSPNFGAIPSSTNVGRNTY-NH2; disulfide 2-7 (inferred); N-terminus assumed) | 22% | 0% |  |  |
| 8.1 | 8.1 | 0.109 nM | 8.1 | 14 h | CC[C@H](C)[C@H](NC(=O)[C@H](C)NC(=O)CNC(=O)[C@H](Cc1ccccc1)NC(=O)[C@H](CC(N)=O)NC(=O)[C@@H]1CCCN1C(=O)[C@H](CO)NC(=O)[C@H](CO)NC(=O)[C@H](Cc1c[nH]cn1)NC(=O)[C@H](CCCNC(=N)N)NC(=O)[C@H](CC(C)C)NC(=O)[C@H](Cc1ccccc1)NC(=O)[C@H](CO)NC(=O)[C@H](C)NC(=O)[C@H](CC(C)C)NC(=O)[C@H](CCCNC(=N)N)NC(=O)[C@H](CCC(N)=O)NC(=O)[C@@H](NC(=O)[C@H](C)NC(=O)[C@@H]1CSSC[C@H](NC(=O)[C@@H](N)CCCCNC(=O)CC[C@H](NC(=O)CC[C@H](NC(=O)CCCCCCCCCCCCCCCCCCC(=O)O)C(=O)O)C(=O)O)C(=O)N[C@@H](CC(N)=O)C(=O)N[C@@H]([C@@H](C)O)C(=O)N[C@@H](C)C(=O)N[C@@H]([C@@H](C)O)C(=O)N1)[C@@H](C)O)C(=O)N1CCC[C@H]1C(=O)N[C@@H](CO)C(=O)N[C@@H](CO)C(=O)N[C@H](C(=O)N[C@@H](CC(N)=O)C(=O)N[C@H](C(=O)NCC(=O)N1CCC[C@H]1C(=O)N[C@@H](CCC(=O)O)C(=O)N[C@H](C(=O)N[C@@H](Cc1ccc(O)cc1)C(N)=O)[C@@H](C)O)C(C)C)[C@@H](C)O [Example 120] (H-K([γGlu-γGlu-C20 diacid])CNTATCATQRLASFLRHSSPNFGAIPSSTNVGPETY-NH2; disulfide 2-7 (inferred); N-terminus assumed) | 66% | 61% |  |  |
